Results on one substance are retold here after patent publication US10532082B2, “SOCS1-derived peptide for use in chronic complications of diabetes” (Fundació Hospital Universitari Vall d'Hebron-Institut de …, priority 2014, dated 2020).

Assay [1] relates to STAT3. As to the kind of experiment: STAT3 activation in cytokine-stimulated macrophages (Western blot). The settings on record: pre-incubation 50-150 ug/mL (Mut 150 ug/mL), IFNγ and IL-6 stimulation. The format is cell-based, murine. As to the method:
RAW264.7 macrophages and vascular smooth muscle cells (VSMC) cultured in a medium with 10% fetal bovine serum were used. The cells were synchronized (24 hours without serum), pre-incubated for 90 minutes with different peptide concentrations (miS1 or the control thereof, 50-150 μg/mL) and stimulated with cytokines (IFNγ […]). STAT activation was analyzed by means of Western blot for phosphorylated STAT1/STAT3 isoforms. JAK/STAT pathway-dependent chemokine (CCL2) expression was determined by means of ELISA. Cell viability was analyzed by MTT colorimetric assay and macrophage migration was analyzed by chemotaxis assay.
(In western blotting, separated proteins are transferred to a membrane and probed.)

In assay [2] the test system is STAT3. Put plainly: Renal phosphorylated STAT3 immunodetection in diabetic mice. Format: in vivo. The settings on record: STZ apoE mice, i.p. 8 weeks; kidney sections, vs vehicle. How it is done: (§1) Apolipoprotein E (apoE)-deficient male mice of 8 weeks of age were made diabetic through streptozotocin injection (125 mg/kg weight in 10 mM citrate, pH 4.5, two consecutive days). After 2 weeks, animals with glycemia greater than 350 mg/dL were randomly distributed in two groups (n=9 animals per group): treated animals (miS1 peptide: 65 μg/day, 200 μL, intraperitoneally, every 2 days for 8 weeks) and controls (vehicle). The weight and glycemia (colorimetric assay) were controlled throughout the study period.

Assay [3] deals with diabetic mice (db/db). As to the kind of experiment: Glial activation by GFAP immunofluorescence in retina, topical eye drops. Format: in vivo. How it is done: 8-week old diabetic mice (db/db) received the miS1 peptide in the form of eye drops (5 μL drops in each eye; 10 mg/mL; twice a day for 15 days; n=7 mice). Diabetic mice treated with the non-functional peptide Mut (n=7), treated with vehicle and non-diabetic mice (db/+) were used as controls. The eye drops were directly administered on the upper surface of the cornea of each eye using a micropipette. The weight and glycemia (colorimetric assay) were controlled throughout the study period. On day 15, the drop with the miS1 peptide or vehicle was administered about two hours before autopsy. […]
Glial activation was evaluated by means of GFAP (Glial fibrillar acidic protein) immunofluorescence following the methodology described in other studies (Bogdanov et al. PLoS One. 2014; 9:e97302). […] The images of diabetic and control samples were taken with identical parameters and the topographic distribution of the GFAP labelling was analyzed in a scale of 0 to 5 (Anderson et al. Clin Ophthalmol 2008; 2(4):801-16). […] Apoptosis was determined by means of TUNEL (Terminal Transferase dUTP Nick-EndLabeling; fluorescence kit) immunohistochemistry using the previously described method (Bogdanov et al. PLoS One. 2014; 9:e97302) and subsequent quantification under a fluorescence microscope. […]

Assay [4] concerns STAT1. As to the kind of experiment: STAT1 activation in cytokine-stimulated VSMC. Format: cell-based, mouse. The settings on record: IFNγ and IL-6 stimulation, immunofluorescence images.
The subject of assay [5] is streptozotocin diabetic apoE-deficient mice. As to the kind of experiment: Atheromatous plaque size and composition in aorta of diabetic mice. The settings on record: STZ apoE mice, i.p. Format: in vivo. How it is done: as §1
(§2) At the end of the study, the anesthetized animals were perfused with saline and sacrificed, processing the tissues immediately. In renal cortex (paraffin sections, 5 μm) the glomerular and tubulointerstitial morphology was studied by means of PAS and Masson trichrome staining and the lesions were evaluated in a double-blind and semi-quantitative manner in a scale of 0-3. Renal fibrosis was determined by means of Picro-Sirius red staining and the infiltrating inflammatory cells (F4/80+ macrophages and CD3+ T-lymphocytes) by immunohistochemistry. In the aorta, the root/arch zone (serial cryosections of 8 μm from the valves to an extension of 1000 μm) was stained with Oil-red-O/hematoxylin and the area of the atherosclerotic lesion was quantified (Metamorph program). Plaque stability was assessed by collagen fiber staining with Picro-Sirius red and α-actin immunofluorescence. The inflammatory component was determined by means of immunohistochemistry for monocyte/macrophages (Moma2). The Image Pro-Plus program was used for quantifying positive stainings. The biochemical parameters in serum (glycated hemoglobin, cholesterol and creatinine) and in urine (albumin and creatinine) were determined by means of conventional commercial kits.

In assay [6] the test system is diabetic mice (db/db). As to the kind of experiment: Retinal apoptosis by TUNEL, topical eye drops. The format is in vivo. How it is done: (§3) 8-week old diabetic mice (db/db) received the miS1 peptide in the form of eye drops (5 μL drops in each eye; 10 mg/mL; twice a day for 15 days; n=7 mice). Diabetic mice treated with the non-functional peptide Mut (n=7), treated with vehicle and non-diabetic mice (db/+) were used as controls. The eye drops were directly administered on the upper surface of the cornea of each eye using a micropipette. The weight and glycemia (colorimetric assay) were controlled throughout the study period. On day 15, the drop with the miS1 peptide or vehicle was administered about two hours before autopsy. The animals were euthanized by cervical dislocation and the enucleated eyes were immediately frozen and dorsoventral sections of […] were cut for analyzing retinal morphology and other immunohistochemical analyses.
Glial activation was evaluated by means of GFAP (Glial fibrillar acidic protein) immunofluorescence following the methodology described in other studies (Bogdanov et al. PLoS One. 2014; 9:e97302). The fixed sections were blocked (1% BSA and 10% goat serum in PBS, 2 hours at RT) and incubated with anti-GFAP antibodies (dilution 1:500, 16 hours at 4° C.) followed by a secondary antibody (Alexa 488-conjugated goat anti-rabbit, dilution 1:200). […] The images of diabetic and control samples were taken with identical parameters and the topographic distribution of the GFAP labelling was analyzed in a scale of 0 to 5 (Anderson et al. Clin Ophthalmol 2008; 2(4):801-16). […] Apoptosis was determined by means of TUNEL (Terminal Transferase dUTP Nick-EndLabeling; fluorescence kit) immunohistochemistry using the previously described method (Bogdanov et al. PLoS One. 2014; 9:e97302) and subsequent quantification under a fluorescence microscope. […] The apoptotic cells were identified using green fluorescence [[…] goat-anti-rabbit (Invitrogen) (dilution 1:200 prepared in PBS)]. An excitation wavelength in the interval of 450-565 nm (e.g., 488 nm) was used for evaluation using fluorescence microscopy and the interval of 515-565 nm (green) was used for detection. […]

Assay [7] has as its system STAT1. Put plainly: Renal phosphorylated STAT1 immunodetection in diabetic mice. The settings on record: STZ apoE mice, i.p. 8 weeks; kidney sections, vs vehicle. Format: in vivo. How it is done: as §1
Assay [8] relates to streptozotocin diabetic apoE-deficient mice. Put plainly: Kidney histology (lesions, fibrosis, inflammatory infiltrate) in diabetic mice. The settings on record: STZ apoE mice, i.p. 8 weeks. Format: in vivo. As to the method:
as §1, §2

Assay [9] deals with diabetic mice (db/db). As to the kind of experiment: Retinal IL-1β mRNA expression by RT-PCR. The format is in vivo. The settings on record: eye drops 15 days, retina mRNA RT-PCR. How it is done: as §3
The expression of IL-1β, TNF-α and IL-6 was evaluated. The total RNA was extracted with RNeasy Mini Kit with DNAse digestion (QIAGEN, distributed by IZASA, Barcelona, Spain) according to manufacturer's instructions. The RNA (1 μg) was used for reverse transcription with random hexanucleotide primers and Applied Biosystems reagents (Applied Biosystems, Madrid, Spain) in a reaction volume of 20 μl. […] The ΔΔCt method was used for obtaining the relative quantification (RQ).

Where [10] appears, read: eye drops 15 days, compared with groups that received Mut peptide or vehicle.
[11] abbreviates: eye drops 50 μg in 5 μL/eye twice a day, 15 days.

Where no end group is shown, it is not given here. [ ]: non-standard residue; d: D form. lysine‑palmitate = lysine-palmitate bound at the N-terminal end; pY = N[C@@H](Cc1ccc(OP(=O)(O)O)cc1)C(=O)O

Turning to “miS1: SEQ ID NO 1 DTHFRTFRSHSDYRRI, kinase inhibitory region of murine SOCS1, bound to lysine-palmitate at the N-terminal end, tyrosine phosphorylated ({lysine‑palmitate}-DTHFRTFRSHSD[pY]RRI)”, the “STAT3 activation (phosphorylation)” value in the assay with STAT3 [1] was “reduced STAT1 and STAT3 activation in a dose-dependent manner”. The “renal STAT3 activation” value in the assay on STAT3 [2] is “reduction”. Moreover, in the assay with diabetic mice (db/db) [3] (eye drops 50 μg in 5 μL/eye twice a day, 15 days, scale 0 to 5), the GFAP score amounted to 3. Also, the “reduction of GFAP glial protein staining” value with diabetic mice (db/db) [3] (setting [10]) is “about 80%”. The STAT1 activation entry in the assay on STAT1 [4] was “prevented”. Moreover, the “reduction in the size and extension of atheromatous lesions” value in assay [5] (Oil-red-O/hematoxylin, compared with the control group that received the vehicle) came to 50%. Moreover, in assay [5] (plaque composition), the “collagen and vascular cells content of plaques” value was “higher”; the “number of macrophages in the atherosclerotic lesions” value is recorded as “reduction”. Moreover, in the assay on diabetic mice (db/db) [6] (setting [11]), the “apoptosis rate (TUNEL) vs diabetic mice treated with vehicle” value is reported as “significantly lower apoptosis rate” and the “percentage of apoptotic cells vs non-diabetic mice” value is reported as “No differences”. In addition, the reduction of apoptosis result with diabetic mice (db/db) [6] (setting [10]) is listed as “about 80%”. For the same substance, in the assay on STAT1 [7], the “renal STAT1 activation” value is “reduction”. Also, in [8], the “inflammatory lymphocyte and macrophage infiltrate in kidney” value is “significantly reduced”; the tubulointerstitial fibrosis result was “significantly reduced”. Moreover, in assay [8] (vs vehicle), the “glomerular lesions (hypercellularity, mesangial expansion and glomerular hypertrophy)” value is “improvement”; the “tubulointerstitial lesions (atrophy, degeneration and infiltrate)” value is “improvement”. Besides, the “IL-1β increase induced by diabetes” value in the assay on diabetic mice (db/db) [9] is given as “prevented the increase”.
